Measurements published in ChEMBL document CHEMBL1159113, “Investigation of Beckett-Casy model 1: synthesis of novel 16,17-seco-naltrexone derivatives and their pharmacology” (Bioorg Med Chem Lett, 2010).

Experiments:
[1] = molecular target: Mu-type opioid receptor (Cavia porcellus, UniProt P97266); test: Displacement of [3H]DAMGO from mu opioid receptor in guinea pig forebrain
[2] = molecular target: Kappa-type opioid receptor (Cavia porcellus, UniProt P41144); test: Displacement of [3H]U69,593 from kappa opioid receptor in guinea pig cerebellum; assay type: tissue-based
Kappa-type opioid receptor, sequence (P41144 whole entry): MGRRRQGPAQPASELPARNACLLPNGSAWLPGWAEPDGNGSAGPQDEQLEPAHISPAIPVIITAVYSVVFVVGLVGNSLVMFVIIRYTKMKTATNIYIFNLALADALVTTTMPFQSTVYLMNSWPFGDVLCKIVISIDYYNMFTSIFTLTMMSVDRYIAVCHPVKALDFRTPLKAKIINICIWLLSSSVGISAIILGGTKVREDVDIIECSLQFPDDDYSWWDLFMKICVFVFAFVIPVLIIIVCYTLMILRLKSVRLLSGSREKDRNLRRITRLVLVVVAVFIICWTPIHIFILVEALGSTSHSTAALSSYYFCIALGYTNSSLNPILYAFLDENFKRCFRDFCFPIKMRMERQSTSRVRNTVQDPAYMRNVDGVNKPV

[3] = Displacement of [3H]NTI from delta opioid receptor in guinea pig forebrain; parameters: species or system Cavia porcellus

Mu-type opioid receptor, sequence (P97266 whole entry): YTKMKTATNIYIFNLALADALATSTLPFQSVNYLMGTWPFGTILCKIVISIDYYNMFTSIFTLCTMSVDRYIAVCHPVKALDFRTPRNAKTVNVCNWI

SMILES | IC50 [1] [nM] | IC50 [2] [nM] | IC50 [3] [nM] | Ki [1] [nM] | Ki [2] [nM] | Ki [3] [nM]
CN(CC1CC1)[C@@H]1Cc2ccc(O)c3c2[C@@]2(CCO3)CC(=O)CC[C@@]12O | > 1000 | > 1000 | > 1000 | – | – | –
CC[C@]12c3c4ccc(O)c3O[C@H]1C(=O)CC[C@@]2(O)[C@H](NCC1CC1)C4 | – | – | – | 26.3 | 275 | 24.1
CC[C@]12c3c4ccc(O)c3O[C@H]1C(=O)CC[C@@]2(O)[C@H](N(C)CC1CC1)C4 | > 1000 | > 1000 | – | – | – | 77.6
CN(CC1CC1)C1Cc2ccc(O)c3c2[C@@]2(CCn4ccnn4)[C@@H](O3)C(=O)CC[C@@]12O (stereo partly specified) | > 1000 | > 1000 | > 1000 | – | – | –
CN(CC1CC1)[C@@H]1Cc2ccc(O)c3c2[C@]24CCO[C@]12CCC(=O)[C@@H]4O3 | – | > 1000 | – | 24 | – | 43.2
C=C[C@]12c3c4ccc(O)c3O[C@H]1C(=O)CC[C@@]2(O)[C@H](NCC1CC1)C4 | – | – | – | 8.6 | 193 | 4.73
C=C[C@]12c3c4ccc(O)c3O[C@H]1C(=O)CC[C@@]2(O)[C@H](N(C)CC1CC1)C4 | – | – | – | 26.4 | 200 | 39.7
